Molecular target: T1, HDAC6 enzyme (Homo sapiens, UniProt Q9UBN7)
T1 construct: transducing full length HDAC6 gene into Sf-9 insect cells; GST; purchased SignalChem; host or cells: Sf-9 insect cells
T1 sequence (Q9UBN7 1-1215): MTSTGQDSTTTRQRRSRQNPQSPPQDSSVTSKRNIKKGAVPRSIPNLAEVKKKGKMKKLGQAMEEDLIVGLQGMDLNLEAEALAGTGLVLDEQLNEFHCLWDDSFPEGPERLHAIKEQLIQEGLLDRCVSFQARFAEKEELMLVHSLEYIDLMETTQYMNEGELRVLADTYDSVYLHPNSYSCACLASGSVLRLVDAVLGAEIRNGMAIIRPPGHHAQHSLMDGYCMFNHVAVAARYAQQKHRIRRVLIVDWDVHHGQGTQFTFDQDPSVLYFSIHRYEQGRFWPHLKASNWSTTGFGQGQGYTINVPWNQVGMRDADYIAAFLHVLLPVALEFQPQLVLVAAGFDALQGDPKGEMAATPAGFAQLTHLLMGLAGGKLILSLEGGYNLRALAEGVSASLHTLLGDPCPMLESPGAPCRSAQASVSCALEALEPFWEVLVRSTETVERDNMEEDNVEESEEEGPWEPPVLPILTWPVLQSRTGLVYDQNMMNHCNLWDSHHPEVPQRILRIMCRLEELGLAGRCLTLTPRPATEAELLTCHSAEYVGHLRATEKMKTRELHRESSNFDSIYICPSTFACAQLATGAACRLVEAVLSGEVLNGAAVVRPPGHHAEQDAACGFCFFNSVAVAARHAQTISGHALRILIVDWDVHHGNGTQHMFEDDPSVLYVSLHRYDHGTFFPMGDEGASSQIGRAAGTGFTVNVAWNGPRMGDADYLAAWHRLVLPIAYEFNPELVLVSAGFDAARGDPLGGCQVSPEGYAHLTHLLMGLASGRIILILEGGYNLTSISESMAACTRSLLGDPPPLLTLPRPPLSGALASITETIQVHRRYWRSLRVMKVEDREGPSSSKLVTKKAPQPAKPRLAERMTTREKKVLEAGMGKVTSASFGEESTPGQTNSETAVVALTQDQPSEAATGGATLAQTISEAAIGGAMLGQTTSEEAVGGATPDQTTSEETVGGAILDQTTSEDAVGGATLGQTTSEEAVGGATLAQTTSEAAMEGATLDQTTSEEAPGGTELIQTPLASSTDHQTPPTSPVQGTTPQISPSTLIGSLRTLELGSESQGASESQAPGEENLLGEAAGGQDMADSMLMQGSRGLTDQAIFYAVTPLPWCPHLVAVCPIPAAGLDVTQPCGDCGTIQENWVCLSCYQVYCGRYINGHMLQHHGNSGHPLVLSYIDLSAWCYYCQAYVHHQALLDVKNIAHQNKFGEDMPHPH
Experiment: HDAC6 enzyme inhibitory activity (HDAC-Glo I/II Assay kit)
Format: biochemical
Settings: 10 μM; wells without enzyme = 100% inhibition
Summary of the method: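 Full-length human HDAC6 (GST-purified, Sf-9 expressed) preincubated with compound 60 min at room temperature in Tris-HCl pH 7.5 buffer with MgCl2, KCl, NaCl, glutathione, Tween-20. HDAC-Glo I/II substrate-developer then added, 20 min room temperature, luminescence read. Inhibition relative to no-enzyme wells as 100%.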

In the case of `O=C1c2cc(-c3nnc(C(F)F)o3)ccc2CN1[C@@H]1CCN(C(=O)C2(C(F)(F)F)CC2)C[C@H]1c1ccc(F)cc1` [Example 508, 6-(5-(difluoro-methyl)-1,3,4-oxadiazol-2-yl)-2-((3R,4R)-3-(4-fluorophenyl)-1-((1-(trifluoro-methyl)cyclo-propyl)carbonyl)pipeiridin-4-yl) isoindolin-1-one], the “HDAC6 inhibitory rate (%) (10 μM)” value is reported as 100%.

Same assay, conditions: 10 μM; wells without enzyme = 100% inhibition; read-out: HDAC6 inhibitory rate (%) (10 μM)

In order of rising inhibition at 10 µM:
1. N[C@H]1[C@H](N2Cc3ccc(-c4nnc(C(F)F)o4)cc3C2=O)CCCC1(F)F [Example 511, 2-((1R,2S)-2-amino-3,3-difluorocyclohexyl)-6-(5-(difluoromethyl)-1,3,4-oxadiazol-2-yl)isoindolin-1-one]  95%
2. O=C1c2cc(-c3nnc(C(F)F)o3)ccc2CN1c1ccc(F)cc1C1CCN(C(=O)C(F)(F)C(F)(F)F)CC1 [Example 533, 6-(5-(difluoromethyl)-1,3,4-oxadiazol-2-yl)-2-(4-fluoro-2-(1-(2,2,3,3,3-pentafluoropropanoyl)piperidin-4-yl)phenyl)isoindolin-1-one]  98%
3. CC(F)(F)C(=O)N1CC[C@@H](N2Cc3ccc(-c4nnc(C(F)F)o4)cc3C2=O)[C@H](c2ccc(F)cc2)C1 [Example 506, 6-(5-(difluoro-methyl)-1,3,4-oxadiazol-2-yl)-2-((3R,4R)-1-(2,2-difluoro-propanoyl)-3-(4-fluorophenyl)piperidin-4-yl) isoindolin-1-one]  99%
4. CC(=O)N1CC[C@@H](N2Cc3ccc(-c4nnc(C(F)F)o4)cc3C2=O)[C@H](c2ccc(F)cc2)C1 [Example 509, 2-((3R,4R)-1-acetyl-3-(4-fluorophenyl)piperidin-4-yl)-6-(5-(difluoro-methyl)-1,3,4-oxadiazol-2-yl) isoindolin-1-one]  99%
5. O=C1c2cc(-c3nnc(C(F)F)o3)ccc2CN1[C@@H]1CCCC(F)(F)[C@H]1NC(=O)C(F)(F)C(F)(F)F [Example 513, N-((1S,6R)-6-(6-(5-(difluoromethyl)-1,3,4-oxadiazol-2-yl)-1-oxo-1,3-dihydro-2H-isoindol-2-yl)-2,2-difluorocyclohexyl)-2,2,3,3,3-pentafluoropropanamide]  99%
6. O=C1c2cc(-c3nnc(C(F)F)o3)ccc2CN1[C@@H]1CCC(F)(F)C[C@@H]1NC(=O)C(F)(F)C(F)(F)F [Example 515, N-((1S,2R)-2-(6-(5-(difluoro-methyl)-1,3,4-oxadiazol-2-yl)-1-oxo-1,3-dihydro-2H-isoindol-2-yl)-5,5-difluoro-cyclohexyl)-2,2,3,3,3-pentafluoro-propanamide]  99%
7. Cn1cc(C2=CCN(C(=O)OC(C)(C)C)CC2)c(N2Cc3ccc(-c4nnc(C(F)F)o4)cc3C2=O)n1 [Example 518, tert-butyl 4-(3-(6-(5-(difluoro-methyl)-1,3,4-oxadiazol-2-yl)-1-oxo-1,3-dihydro-2H-isoindol-2-yl)-1-methyl-1H-pyrazol-4-yl)-3,6-dihydro-pyridine-1(2H)-carboxylate]  99%
8. Cn1cc(C2=CCC(NC(=O)OC(C)(C)C)CC2)c(N2Cc3ccc(-c4nnc(C(F)F)o4)cc3C2=O)n1 (stereo not shown) [Example 519, tert-butyl (4-(3-(6-(5-(difluoromethyl)-1,3,4-oxadiazol-2-yl)-1-oxo-1,3-dihydro-2H-isoindol-2-yl)-1-methyl-1H-pyrazol-4-yl)cyclohex-3-en-1-yl)carbamate]  99%
9. CC(C)(C)OC(=O)NC1CC=C(c2cc(F)ccc2N2Cc3ccc(-c4nnc(C(F)F)o4)cc3C2=O)CC1 (stereo not shown) [Example 520, tert-butyl (4-(2-(6-(5-(difluoromethyl)-1,3,4-oxadiazol-2-yl)-1-oxo-1,3-dihydro-2H-isoindol-2-yl)-5-fluorophenyl)cyclohex-3-en-1-yl)carbamate]  99%
10. O=C1c2cc(-c3nnc(C(F)F)o3)ccc2CN1[C@@H]1CCCC[C@H]1Nc1ccccn1 [Example 521, 6-(5-(difluoromethyl)-1,3,4-oxadiazol-2-yl)-2-((1R,2R)-2-(pyridin-2-ylamino)cyclohexyl)isoindolin-1-one]  99%
11. Cn1cc(C2CCN(C(=O)OC(C)(C)C)CC2)c(N2Cc3ccc(-c4nnc(C(F)F)o4)cc3C2=O)n1 [Example 522, tert-butyl 4-(3-(6-(5-(difluoromethyl)-1,3,4-oxadiazol-2-yl)-1-oxo-1,3-dihydro-2H-isoindol-2-yl)-1-methyl-1H-pyrazol-4-yl)piperidine-1-carboxylate]  99%
12. Cn1cc(C2CCC(NC(=O)OC(C)(C)C)CC2)c(N2Cc3ccc(-c4nnc(C(F)F)o4)cc3C2=O)n1 (stereo not shown) [Example 523, tert-butyl (4-(3-(6-(5-(difluoromethyl)-1,3,4-oxadiazol-2-yl)-1-oxo-1,3-dihydro-2H-isoindol-2-yl)-1-methyl-1H-pyrazol-4-yl)cyclohexyl)carbamate]  99%
13. CC(C)(C)OC(=O)N1CCC(c2cc(F)ccc2N2Cc3ccc(-c4nnc(C(F)F)o4)cc3C2=O)CC1 [Example 524, tert-butyl 4-(2-(6-(5-(difluoromethyl)-1,3,4-oxadiazol-2-yl)-1-oxo-1,3-dihydro-2H-isoindol-2-yl)-5-flluorophenyl)piperidine-1-carboxylate]  99%
14. Cn1cc(C2CCC(NC(=O)C(F)(F)C(F)(F)F)CC2)c(N2Cc3ccc(-c4nnc(C(F)F)o4)cc3C2=O)n1 (stereo not shown) [Example 532, N-(4-(3-(6-(5-(difluoromethyl)-1,3,4-oxadiazol-2-yl)-1-oxo-1,3-dihydro-2H-isoindol-2-yl)-1-methyl-1H-pyrazol-4-yl)cyclohexyl)-2,2,3,3,3-pentafluoropropanamide]  99%
15. COC(=O)N1CC[C@@H](N2Cc3ccc(-c4nnc(C(F)F)o4)cc3C2=O)[C@H](c2ccc(F)cc2)C1 [Example 505, methyl (3R,4R)-4-(6-(5-(difluoro-methyl)-1,3,4-oxadiazol-2-yl)-1-oxo-1,3-dihydro-2H-isoindol-2-yl)-3-(4-fluoro-phenyl) piperidine-1-carboxylate]  100%
16. O=C1c2cc(-c3nnc(C(F)F)o3)ccc2CN1[C@@H]1CCN(C(=O)C2(F)CC2)C[C@H]1c1ccc(F)cc1 [Example 507, 6-(5-(difluoro-methyl)-1,3,4-oxadiazol-2-yl)-2-((3R,4R)-1-((1-fluorocyclo-propyl)carbonyl)-3-(4-fluoro-phenyl)piperidin-4-yl)isoindolin-1-one]  100%
17. O=C(N[C@H]1[C@H](N2Cc3ccc(-c4nnc(C(F)F)o4)cc3C2=O)CCCC1(F)F)OCc1ccccc1 [Example 510, benzyl ((1S,6R)-6-(6-(5-(difluoromethyl)-1,3,4-oxadiazol-2-yl)-1-oxo-1,3-dihydro-2H-isoindol-2-yl)-2,2-difluorocyclohexyl)carbamate]  100%
18. CC(F)(F)C(=O)N[C@H]1CC(F)(F)CC[C@H]1N1Cc2ccc(-c3nnc(C(F)F)o3)cc2C1=O [Example 516, N-((1S,2R)-2-(6-(5-(difluoromethyl)-1,3,4-oxadiazol-2-yl)-1-oxo-1,3-dihydro-2H-isoindol-2-yl)-5,5-difluorocyclohexyl)-2,2-difluoropropanamide]  100%
19. CC(C)(C)OC(=O)NC1CCC(c2cc(F)ccc2N2Cc3ccc(-c4nnc(C(F)F)o4)cc3C2=O)CC1 (stereo not shown) [Example 525, tert-butyl (4-(2-(6-(5-(difluoromethyl)-1,3,4-oxadiazol-2-yl)-1-oxo-1,3-dihydro-2H-isoindol-2-yl)-5-fluorophenyl)cyclohexyl)carbamate]  100%
20. O=C1c2cc(-c3nnc(C(F)F)o3)ccc2CN1N1CCC(F)(F)CC1c1ccccc1 (stereo not shown) [Example 530, 6-(5-(difluoromethyl)-1,3,4-oxadiazol-2-yl)-2-(4,4-difluoro-2-phenylpiperidin-1-yl)isoindolin-1-one]  100%

Same assay, conditions: read-out: HDAC6 inhibitory rate (%) (10 μM)

With `O=C1c2cc(-c3nnc(C(F)F)o3)ccc2CN1[C@@H]1CCCC[C@H]1N1CC(F)(F)C(F)(F)C(F)(F)C1` [Example 531, 6-(5-(difluoromethyl)-1,3,4-oxadiazol-2-yl)-2-((1R,2R)-2-(3,3,4,4,5,5-hexafluoropiperidin-1-yl)cyclohexyl)isoindolin-1-one] the inhibition at 10 µM was 100%.
